These results are taken from article PMC2232895 (The Journal of General Physiology, 2000).

This assay addresses T1, bovine rod cGMP-gated channel alpha subunit (retinal CNG channel) (Bos taurus, UniProt Q00194).
T1 sequence (Q00194 1-690): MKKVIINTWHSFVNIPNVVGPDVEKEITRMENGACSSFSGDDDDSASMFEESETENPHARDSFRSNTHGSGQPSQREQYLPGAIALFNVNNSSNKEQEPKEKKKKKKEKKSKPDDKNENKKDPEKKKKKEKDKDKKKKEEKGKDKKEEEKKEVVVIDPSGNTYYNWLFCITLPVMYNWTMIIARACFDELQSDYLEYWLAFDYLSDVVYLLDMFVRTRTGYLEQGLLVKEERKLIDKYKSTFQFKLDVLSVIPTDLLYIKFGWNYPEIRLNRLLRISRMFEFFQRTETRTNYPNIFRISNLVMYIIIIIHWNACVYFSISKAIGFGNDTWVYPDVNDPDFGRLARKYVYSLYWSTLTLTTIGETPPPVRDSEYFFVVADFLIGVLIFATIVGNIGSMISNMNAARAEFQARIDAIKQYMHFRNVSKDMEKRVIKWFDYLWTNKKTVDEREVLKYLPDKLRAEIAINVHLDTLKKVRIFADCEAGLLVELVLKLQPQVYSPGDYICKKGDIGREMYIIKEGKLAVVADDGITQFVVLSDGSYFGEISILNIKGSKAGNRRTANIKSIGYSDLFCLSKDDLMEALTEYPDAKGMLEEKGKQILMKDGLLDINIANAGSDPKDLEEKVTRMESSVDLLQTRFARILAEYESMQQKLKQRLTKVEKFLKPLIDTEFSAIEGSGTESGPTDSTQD
Type of assay: cell-based.

As a reminder, the Kd is the free concentration of one partner at which half of the binding sites on the other are occupied at equilibrium, for simple one-to-one binding. The low end stands for a tighter complex, the high end for a looser complex. Take `NCCCNCCCCNCCCN` [spermine]: the dissociation constant (Kd) came to 510 ± 40 nM.
